From patent publication US9334256B2, “Agents and methods for treating ischemic and other diseases” (NoNO INC., priority 2011, dated 2016) come the findings set out here.

The target in this assay is T1, TRPM7 (Mus musculus, UniProt Q923J1).
T1 construct: expressed in transfected cells; host or cells: HEK-293 tSA (HEK-293T) cells, transient transfection with Lipofectamine 2000
The assay can be described thus: PI uptake cell death assay in TRPM7-expressing HEK-293 cells (type of assay from Example 1). Type of assay: cell-based, murine. The text has this: The TRPM7 channel provides a pathway for mono- and divalent cations into the cell, and is unique in that it contains a functional C-terminal α-kinase domain. […] The induction of chemical anoxia in host cells such as recombinant HEK293 cells can be used to activate TRPM7. This activation is detectable with the use measurements of cellular calcium accumulation. This is achievable with the use of a fluorescent calcium indicator. Alternatively, this activation can also be measured using radiolabelled Ca2+ (^45Ca^2+) as described previously by Sattler et al. (Sattler et al., 1998) and Aarts et al. (Aarts et al., 2003).
Hoechst 33342 was purchased as a 10 mg/mL solution in water (Molecular Probes Inc., Eugene, Oreg.). Propidium iodide (PI) was purchased as a powder and prepared by dissolving in PBS at 1 mg/mL. PI solutions were stored at 4° C. until use. Hoechst and PI were added directly to cell culture to 5 μg/mL and 10 μg/mL respectively. Cells were incubated at room temperature or at 37° C. for 10 minutes to allow for adequate uptake, and fluorescence observed using a NIKON Eclipse TE2000 inverted microscope and TE-FM Epi-Fluorescence attachment (Nikon Canada).
Untransfected cells or cells transfected with the TRPM7/pTracer or ΔPDZ/pTracer construct were plated onto 24-well plates, 24-hours post-transfection. Untransfected cells were plated at 0.75×10^6 cells/well and transfected cells at 1×10^6 cells/well. The plates were coated with poly-D-lysine to strengthen cell adhesion and to minimize cell loss during washes. Cells were loaded by incubation with 5 μM fluo-3 AM and 0.02% pluronic in HBSS at 37° C. for 30 minutes. Following loading, cells were washed with an aglycaemic HBSS containing, in mM: 20 N-methyl-D-glucamine (NMDG), 121 NaCl, 5 KCl, 10 HEPES acid, 10 HEPES-Na salt, 3 NaHCO3, 1 Na-pyruvate, and 1.8 CaCl2, pH adjusted to 7.4 with HCl. Calcium uptake, as assessed by fluo-3 fluorescence, was measured in response to 0, 5, 10, 15, 20, or 25 mM sodium cyanide (NaCN; Mallinckrodt Baker Inc., Phillipsburg, N.J.) dissolved in aglycaemic HBSS. A 250 mM NaCN stock was prepared in water and stored at room temperature for up to 2 weeks. Measurements of fluo-3 fluorescence were taken over a 2 hour period at 10 minutes intervals at room temperature (22-25° C.). Calcium uptake assays were performed 48 hours post-transfection.
Cell death, as assessed by PI uptake, was examined at the end of the 2 hour calcium uptake assay. Cells were stained with 10 μg/mL PI and PI fluorescence measured using the Fluoroskan microplate reader (λ excitation=590 nm, λ emission=630 nm) and accompanying Ascent software (Thermo Electron Corp.). To obtain a reading of maximal fluorescence (Fmax), 0.5% Triton X-100 was added to each well and allowed to incubate for 20 minutes. Cell death assays were performed 48 hours post-transfection.
Data was entered into Excel (Microsoft, Seattle, Wash.) or SigmaPlot (SPSS Inc., Chicago, Ill.) for analysis. Pooled data are presented as the mean of at least 3 separate experiments±sem. Calcium uptake is expressed as a fraction of baseline uptake: ΔFt=(Ft−Fo)/Fo where Ft is the fluorescence at time t, and Fo is the fluorescence at baseline. Cell death is expressed as a percentage of total cell death: cell death (%)=Ft/Fmax×100 where Ft is the fluorescence at time t and Fmax is the maximal fluorescence obtained by permeabilization with Triton X-100. Concentration-response curves were fit by nonlinear regression with a 4 parameter logistic curve represented by the following equation: y=min+{(max−min)/[1+(x/EC50)n]} where y is the response at concentration x, min is the minimal response, max is the maximal response, EC50 is the concentration required for half-maximal response, and n is the Hill slope. Statistical analysis of data was carried out with a two-tailed Student's t test, or a one-way analysis of variance (ANOVA) followed by post hoc pairwise multiple comparisons testing using the Holm-Sidak method, where appropriate. […]

Setting [1] is: Table X, the lower the number, the more potent in protecting against cell death.
The mark [2] stands for this setting: Table X, the lower the number, the more potent.
Where [3] appears, read: Table Y, commercially available compounds.

T1 sequence (Q923J1 whole entry): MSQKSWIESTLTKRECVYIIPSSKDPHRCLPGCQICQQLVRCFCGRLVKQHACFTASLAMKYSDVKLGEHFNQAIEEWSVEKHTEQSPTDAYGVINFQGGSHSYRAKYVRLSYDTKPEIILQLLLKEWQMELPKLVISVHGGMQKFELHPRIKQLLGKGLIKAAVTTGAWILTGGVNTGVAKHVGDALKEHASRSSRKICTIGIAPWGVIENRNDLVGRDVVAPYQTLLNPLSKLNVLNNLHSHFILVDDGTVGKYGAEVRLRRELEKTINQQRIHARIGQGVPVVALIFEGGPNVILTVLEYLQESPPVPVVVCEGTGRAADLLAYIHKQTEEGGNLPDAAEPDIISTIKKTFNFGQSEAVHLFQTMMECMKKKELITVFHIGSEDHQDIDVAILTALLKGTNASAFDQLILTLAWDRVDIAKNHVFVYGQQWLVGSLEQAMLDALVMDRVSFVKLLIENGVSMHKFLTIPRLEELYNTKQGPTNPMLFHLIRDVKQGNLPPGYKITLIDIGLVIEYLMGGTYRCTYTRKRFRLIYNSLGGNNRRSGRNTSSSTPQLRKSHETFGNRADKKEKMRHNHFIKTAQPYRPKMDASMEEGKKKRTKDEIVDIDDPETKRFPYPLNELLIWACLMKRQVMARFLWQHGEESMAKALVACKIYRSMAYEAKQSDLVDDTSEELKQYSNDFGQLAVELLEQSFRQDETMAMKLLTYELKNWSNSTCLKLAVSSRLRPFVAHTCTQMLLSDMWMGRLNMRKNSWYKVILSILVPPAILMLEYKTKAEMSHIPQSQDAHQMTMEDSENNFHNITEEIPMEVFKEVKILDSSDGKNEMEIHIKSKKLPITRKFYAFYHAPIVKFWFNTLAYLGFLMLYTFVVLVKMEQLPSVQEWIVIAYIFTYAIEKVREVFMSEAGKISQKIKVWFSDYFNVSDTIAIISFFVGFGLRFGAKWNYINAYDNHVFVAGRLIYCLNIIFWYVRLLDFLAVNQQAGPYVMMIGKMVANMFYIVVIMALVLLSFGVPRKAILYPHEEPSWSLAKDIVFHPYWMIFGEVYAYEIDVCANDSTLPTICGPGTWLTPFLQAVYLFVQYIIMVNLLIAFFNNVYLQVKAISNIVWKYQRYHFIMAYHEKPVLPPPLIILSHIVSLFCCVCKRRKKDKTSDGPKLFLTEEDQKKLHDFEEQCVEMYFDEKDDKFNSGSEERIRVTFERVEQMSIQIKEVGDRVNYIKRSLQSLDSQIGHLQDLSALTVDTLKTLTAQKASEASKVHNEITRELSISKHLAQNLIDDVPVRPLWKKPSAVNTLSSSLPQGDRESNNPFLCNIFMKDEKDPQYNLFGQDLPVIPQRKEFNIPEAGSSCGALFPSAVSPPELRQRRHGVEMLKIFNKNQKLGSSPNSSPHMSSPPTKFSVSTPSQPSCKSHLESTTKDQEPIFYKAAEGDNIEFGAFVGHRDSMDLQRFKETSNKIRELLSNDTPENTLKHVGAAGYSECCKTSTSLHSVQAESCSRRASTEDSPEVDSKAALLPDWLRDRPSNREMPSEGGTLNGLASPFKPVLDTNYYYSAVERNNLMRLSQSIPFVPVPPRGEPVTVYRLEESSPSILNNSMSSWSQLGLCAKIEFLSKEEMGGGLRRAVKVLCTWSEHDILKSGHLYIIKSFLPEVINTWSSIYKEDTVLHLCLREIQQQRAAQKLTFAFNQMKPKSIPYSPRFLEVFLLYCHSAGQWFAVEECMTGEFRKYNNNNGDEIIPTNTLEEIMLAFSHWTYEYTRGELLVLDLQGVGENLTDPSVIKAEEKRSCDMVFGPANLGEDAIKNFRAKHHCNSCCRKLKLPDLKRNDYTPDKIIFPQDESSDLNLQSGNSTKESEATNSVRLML

For `COc1ccc2c(Cl)c(C3NCCc4cc(OC)c(OC)cc43)sc2c1` (stereo not drawn) [Compound 71], the “Normalized ratio of PI uptake (5 μM)” value under setting [1] was determined as 0.005. For the same compound, under setting [2], the “Normalized ratio of PI uptake (10 μM)” value amounted to 0.003. This compound registered an IC50 (Table X) of 0.42 µM.

As for `Cc1c(Cc2ccccc2)c(=O)oc2cc(O)c(Cl)cc12` [STOCK6S- 31467 #2, reference compound], under setting [3], the “Normalized ratio of PI uptake (5 μM)” value stood at 0.472, the “Normalized ratio of PI uptake (10 μM)” value was 0.1 and the IC50 amounted to 12.6 µM.

Regarding `CCN1CCc2cc(OC)c(OC)cc2C1c1sc2ccccc2c1Cl` (stereo not drawn) [Compound 129], under setting [1], the “Normalized ratio of PI uptake (5 μM)” value was determined as 0.05. In addition, the “Normalized ratio of PI uptake (10 μM)” value under setting [2] is 0.07. Also, half-maximal inhibition (Table X) (IC50) required 2.23 µM.

With `Cc1c(Cc2c(F)cccc2Cl)c(=O)[nH]c2cc(O)cc(O)c12` [Compound 133], the “Normalized ratio of PI uptake (5 μM)” value under setting [1] came out at 0.367. The “Normalized ratio of PI uptake (10 μM)” value under setting [2] is listed as 0.123. The compound also showed a half-maximal inhibitory concentration (IC50) (Table X) of 3.31 µM.

Consider `Cc1c(Cc2ccc(F)cc2)c(=O)oc2cc(O)ccc12` [RJF01910SC #10, reference compound], for which, under setting [3], the “Normalized ratio of PI uptake (5 μM)” value turned out to be 0.465, the “Normalized ratio of PI uptake (10 μM)” value is recorded as 0.261 and it took 4.15 µM to reach half-maximal inhibition (IC50).

As for `Cc1ccc2c(c1)CCCN2C(=O)c1sc2ccccc2c1F` [Compound 45], the “Normalized ratio of PI uptake (5 μM)” value under setting [1] was determined as 0.399. The “Normalized ratio of PI uptake (10 μM)” value under setting [2] amounted to 0.072. Further, the IC50 (Table X) is 4.66 µM.

For the compound `COc1ccc(C)c(N(Cc2cccc(C)n2)C(=O)c2sc3ccccc3c2Cl)c1` [Compound 102], the “Normalized ratio of PI uptake (5 μM)” value under setting [1] was 0.206. Besides, the “Normalized ratio of PI uptake (10 μM)” value under setting [2] is on record as 0.059. The compound further had an IC50 (Table X) of 1.61 µM.

Regarding `Cc1ccc2c(c1)CCCN2C(=O)c1sc2ccccc2c1Cl` [Compound 2], the “Normalized ratio of PI uptake (5 μM)” value under setting [1] is listed as 0.179. Further, under setting [2], the “Normalized ratio of PI uptake (10 μM)” value is listed as 0.018. This compound showed a 50% inhibitory concentration (IC50) (Table X) of 3.27 µM.

As for `Cc1c(Cc2c(Cl)cccc2Cl)c(=O)[nH]c2cc(O)cc(O)c12` [Compound 137], under setting [1], the “Normalized ratio of PI uptake (5 μM)” value is given as 0.575. The “Normalized ratio of PI uptake (10 μM)” value under setting [2] was determined as 0.296. Besides, under “Table X”, the IC50 amounted to 8.5 µM.

Take `CCCc1c(Cc2ccc(Cl)c(Cl)c2)c(=O)[nH]c2cc(O)cc(O)c12` [Compound 136]: the “Normalized ratio of PI uptake (5 μM)” value under setting [1] amounted to 0.534. Further, under setting [2], the “Normalized ratio of PI uptake (10 μM)” value came to 0.238. The compound further had a half-inhibitory concentration (IC50) (Table X) of 18.4 µM.

Regarding `O=S(=O)(Nc1sc2ccccc2c1Cl)c1ccc(F)cc1` [Compound 64], the “Normalized ratio of PI uptake (5 μM)” value under setting [1] turned out to be 0.154. The “Normalized ratio of PI uptake (10 μM)” value under setting [2] was found to be 0.080. Under “Table X”, this compound had an IC50 of 2.87 µM.

Take `COc1ccc(C)c(N(Cc2ccc3ccccc3n2)C(=O)c2sc3ccccc3c2Cl)c1` [Compound 105]: the “Normalized ratio of PI uptake (5 μM)” value under setting [1] was 0.07. Moreover, the “Normalized ratio of PI uptake (10 μM)” value under setting [2] amounted to 0.17. This compound gave a 50% inhibitory concentration (IC50) (Table X) of 0.86 µM.

Consider `COc1cc(OC)c2c(C)c(Cc3cccc(Cl)c3)c(=O)[nH]c2c1` [Compound 94], for which, under setting [1], the “Normalized ratio of PI uptake (5 μM)” value amounted to 0.073. The “Normalized ratio of PI uptake (10 μM)” value under setting [2] is recorded as 0.042. The compound also came in with an IC50 (Table X) of 0.65 µM.

Take `CCN(CC)Cc1c(O)ccc2c(C)c(Cc3ccccc3)c(=O)oc12` [STOCK4S- 10213 #1, reference compound]: under setting [3], the “Normalized ratio of PI uptake (5 μM)” value is on record as 0.398, the “Normalized ratio of PI uptake (10 μM)” value turned out to be 0.242 and half-maximal inhibition (IC50) was put at 4.3 µM.

As for `CCCc1c(Cc2ccc(Cl)c(Cl)c2)c(=O)[nH]c2cc(OC)cc(OC)c12` [Compound 132], the “Normalized ratio of PI uptake (5 μM)” value under setting [1] is listed as 0.73. Also, the “Normalized ratio of PI uptake (10 μM)” value under setting [2] worked out at 0.1. For the setting “Table X”, this compound returned an IC50 of 4.46 µM.

As to `COc1cc(OC)c2c(C)c(Cc3ccccc3)c(=O)[nH]c2c1` [Compound 56], the “Normalized ratio of PI uptake (5 μM)” value under setting [1] amounted to 0.255. The “Normalized ratio of PI uptake (10 μM)” value under setting [2] was found to be 0.240. The IC50 (Table X) turned out to be 0.43 µM.

In the case of `CCCc1c(Cc2c(F)cccc2Cl)c(=O)oc2cc(O)ccc12` [RJF01538SC #14, reference compound], under setting [3], the “Normalized ratio of PI uptake (5 μM)” value was found to be 0.16, the “Normalized ratio of PI uptake (10 μM)” value is recorded as 0.057 and the half-inhibitory concentration (IC50) amounted to 2.78 µM.

For the compound `Cc1c(Cc2ccccc2)c(=O)oc2cc(O)cc(O)c12` [STOCK1N- 70089 #1, reference compound], under setting [3], the “Normalized ratio of PI uptake (5 μM)” value is reported as 0.181; the “Normalized ratio of PI uptake (10 μM)” value worked out at 0.005; the midpoint of inhibition, the IC50, lay at 3.16 µM.

Turning to `COc1cccc2c1CCN=C2c1sc2ccccc2c1Cl` [Compound 110], the “Normalized ratio of PI uptake (5 μM)” value under setting [1] came to 0.037. Also, the “Normalized ratio of PI uptake (10 μM)” value under setting [2] amounted to 0.06. For the same compound, the IC50 (Table X) was 1.38 µM.

With `Cc1ccc(N(Cc2ccc3ccccc3n2)C(=O)c2sc3ccccc3c2Cl)c(C)c1` [Compound 104], under setting [1], the “Normalized ratio of PI uptake (5 μM)” value is reported as 0.307. Moreover, under setting [2], the “Normalized ratio of PI uptake (10 μM)” value stood at 0.094. Further, under “Table X”, 0.98 µM corresponded to half-maximal inhibition (IC50).

For `CC1c2ccsc2CCN1C(=O)c1c(Cl)c2ccccc2n1C` (stereo not drawn) [T6857127 #7, reference compound], under setting [3], the “Normalized ratio of PI uptake (5 μM)” value is 0, the “Normalized ratio of PI uptake (10 μM)” value worked out at 0 and inhibition was half-maximal at 0.8 µM (IC50).

With `COc1ccc2sc(C3=NCCc4cc(OC)c(OC)cc43)c(Cl)c2c1` [Compound 70], under setting [1], the “Normalized ratio of PI uptake (5 μM)” value was found to be 0.035. Further, the “Normalized ratio of PI uptake (10 μM)” value under setting [2] amounted to 0.013. The same compound gave an IC50 (Table X) of 0.47 µM.

As to `Cc1ccc(N(Cc2cccnc2)C(=O)c2sc3ccccc3c2Cl)c(C)c1` [Compound 106], the “Normalized ratio of PI uptake (5 μM)” value under setting [1] came out at 0. Further, under setting [2], the “Normalized ratio of PI uptake (10 μM)” value is on record as 0.054. This compound yielded an IC50 (Table X) of 1.2 µM.

With `CN1CCc2cc(F)ccc2C1c1sc2ccccc2c1Cl` (stereo not drawn) [Compound 44], the “Normalized ratio of PI uptake (5 μM)” value under setting [1] was 0.336. Moreover, under setting [2], the “Normalized ratio of PI uptake (10 μM)” value is listed as 0.070. For the same compound, under “Table X”, half-maximal inhibition (IC50) required 4.25 µM.

As for `COc1cc2c(cc1OC)C(c1sc3cccc(C)c3c1Cl)NCC2` (stereo not drawn) [Compound 73], the “Normalized ratio of PI uptake (5 μM)” value under setting [1] is recorded as 0.000. The “Normalized ratio of PI uptake (10 μM)” value under setting [2] is 0.000. In addition, under “Table X”, the IC50 came to 0.18 µM.

With `Cc1cccc2sc(C3NCCc4c(F)cccc43)c(Cl)c12` (stereo not drawn) [Compound 127], the “Normalized ratio of PI uptake (5 μM)” value under setting [1] is 0.038. Moreover, the “Normalized ratio of PI uptake (10 μM)” value under setting [2] stood at 0.044. Besides, it took 0.93 µM to reach half-maximal inhibition (Table X) (IC50).
